The values below come from patent publication US4304903A, “D-Erythro-2,3-dihydroxy-1-(1-phenyl-1H-pyrazolo(3,4-b)quinoxalin-3-y l)-propyl-4-O-α-D-glucopyranosyl-alpha-D-glucopyranoside poly(H-sulfate)salts” (American Cyanamid Company, priority 1980, dated 1981).

Test [1] has as its system late components of human complement (C3-C9). Put plainly: Test Code 035 (C3-C9 inhibitor). It is filed as biochemical. Details: key: N = Inactive. The note with it: serial twofold dilution assay; higher well number indicates higher activity; lysis of EAC 142. The source says: (§1) An active inhibitor protects C2 from C1 and C4; (ii) Test Code 035 (C3-C9 inhibitor)--This test determines the ability of the late components of human complement (C3-C9) to lyse EAC 142 in the presence of appropriate dilutions of the test compound. An active inhibitor protects EAC 142 from lysis by human C3-C9; (iii) Test Code 036 (C-Shunt inhibitor)--In this test human erythrocytes rendered fragile are lysed in autologous serum via the shunt pathway activated by cobra venom factor in the presence of appropriate dilutions of the test compound. Inhibition of the shunt pathway results in failure of lysis; (iv) Forssman Vasculitis Test--Here, the well known complement dependent lesion, Forssman vasculitis, is produced in guinea pigs by intradermal injection of rabbit anti-Forssman antiserum. […] Percent inhibition is calculated by comparison with simultaneous controls. […]

In test [2] the test system is serum complement activity. The test can be described thus: Guinea Pig Intraperitoneal Test (GPIP). In kind it is in vivo. Particulars: Cavia porcellus, ip, 200 mg./kg. i.p. An excerpt: An active inhibitor protects C2 from C1 and C4; (ii) Test Code 035 (C3-C9 inhibitor)--This test determines the ability of the late components of human complement (C3-C9) to lyse EAC 142 in the presence of appropriate dilutions of the test compound. An active inhibitor protects EAC 142 from lysis by human C3-C9; (iii) Test Code 036 (C-Shunt inhibitor)--In this test human erythrocytes rendered fragile are lysed in autologous serum via the shunt pathway activated by cobra venom factor in the presence of appropriate dilutions of the test compound. Inhibition of the shunt pathway results in failure of lysis; (iv) Forssman Vasculitis Test--Here, the well known complement dependent lesion, Forssman vasculitis, is produced in guinea pigs by intradermal injection of rabbit anti-Forssman antiserum. The lesion is measured in terms of diameter, edema and hemorrhage and the extent to which a combined index of these is inhibited by prior intraperitoneal injection of the test compound at 200 mg./kg. is then reported, unless otherwise stated; (v) Forssman Shock Test--Lethal shock is produced in guinea pigs by an i.v. injection of anti-Forssman antiserum and the harmonic mean death time of treated guinea pigs is compared with that of simultaneous controls; (vi) Complement Level Reduction Test--In this test, the above dosed guinea pigs, or others, are bled for serum and the complement level is determind in undiluted serum by the capillary tube method of U.S. Pat. No. 3,876,376 and compared to undosed control guinea pigs; (vii) Cap 50 Test--Here, appropriate amounts of the test compound are added to a pool of quinea Pig serum in vitro, after which the undiluted serum capillary tube assay referred to above is run. The concentration of compound inhibiting 50% is reported; (viii) Guinea Pig Intraperitoneal Test (GPIP)--Guinea pigs weighing about 300 g. are dosed intraperitoneally (i.p.) with 200 mg./kg. of the test compound dissolved in saline and adjusted to pH 7-8. […] Percent inhibition is calculated by comparison with simultaneous controls. […]

The target in another test is T1, activated human C1 (Homo sapiens, UniProt P09871).
T1 sequence (P09871 16-437 limits assumed): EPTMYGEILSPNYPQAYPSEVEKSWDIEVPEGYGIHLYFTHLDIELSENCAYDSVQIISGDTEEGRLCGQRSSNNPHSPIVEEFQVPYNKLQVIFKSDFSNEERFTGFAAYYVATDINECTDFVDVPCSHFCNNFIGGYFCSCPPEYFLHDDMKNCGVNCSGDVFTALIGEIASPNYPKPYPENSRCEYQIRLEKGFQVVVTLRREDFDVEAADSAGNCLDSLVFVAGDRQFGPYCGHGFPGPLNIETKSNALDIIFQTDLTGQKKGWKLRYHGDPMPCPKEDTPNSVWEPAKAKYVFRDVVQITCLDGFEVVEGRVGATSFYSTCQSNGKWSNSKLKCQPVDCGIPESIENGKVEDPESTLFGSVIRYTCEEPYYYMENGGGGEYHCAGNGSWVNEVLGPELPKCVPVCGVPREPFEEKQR
T1 sequence (P09871 438-688 limits assumed): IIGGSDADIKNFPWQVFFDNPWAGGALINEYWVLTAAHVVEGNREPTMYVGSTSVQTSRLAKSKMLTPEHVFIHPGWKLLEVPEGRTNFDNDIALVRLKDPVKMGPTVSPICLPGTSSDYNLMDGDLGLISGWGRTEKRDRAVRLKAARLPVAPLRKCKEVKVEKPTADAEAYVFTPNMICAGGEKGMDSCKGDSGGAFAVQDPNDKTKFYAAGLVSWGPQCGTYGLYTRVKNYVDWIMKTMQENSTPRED
Put plainly: Test Code 026 (C1 inhibitor). Particulars: serial twofold dilution assay; higher well number indicates higher activity. It is filed as biochemical.
Excerpt: as §1

Counter-ions that a name gives are not always drawn. Like-named read-outs stand apart in the source and are kept apart here.

For the compound `O=S(=O)(O)OC[C@H]1O[C@H](O[C@@H](c2nn(-c3ccccc3)c3nc4ccccc4nc23)[C@@H](COS(=O)(=O)O)OS(=O)(=O)O)[C@H](OS(=O)(=O)O)[C@@H](OS(=O)(=O)O)[C@@H]1O[C@H]1O[C@H](COS(=O)(=O)O)[C@@H](OS(=O)(=O)O)[C@H](OS(=O)(=O)O)[C@H]1OS(=O)(=O)O` [D-Erythro-2,3-dihydroxy-1-(1-phenyl-1H-pyrazolo[3,4-b]quinox] [D-Erythro-2,3-dihydroxy-1-(1-phenyl-1H-pyrazolo[3,4-b]quinoxalin-3-yl)propyl-4-O-α-D-glucopyranosyl-α-D-glucopyranoside, nonakis(H-sulfate), nonasalt with trimethylamine], the “035 In Vitro Activity (activity in wells)” value in test [1] is reported as “N”.
By inhibition is commonly meant the drop in the measured response relative to a control, in per cent. For the compound `O=S(=O)(O)OC[C@H]1O[C@H](O[C@@H](c2nn(-c3ccccc3)c3nc4ccccc4nc23)[C@@H](COS(=O)(=O)O)OS(=O)(=O)O)[C@H](OS(=O)(=O)O)[C@@H](OS(=O)(=O)O)[C@@H]1O[C@H]1O[C@H](COS(=O)(=O)O)[C@@H](OS(=O)(=O)O)[C@H](OS(=O)(=O)O)[C@H]1OS(=O)(=O)O` [D-Erythro-2,3-dihydroxy-1-(1-phenyl-1H-pyrazolo[3,4-b]quinoxalin-3-yl)propyl-4-O-α-D-glucopyranosyl-α-D-glucopyranoside, nonakis(H-sulfate), nonasodium salt], the inhibition at 200 mg/kg is -58% in test [2] (0.5 h, serum 30 minutes after injection, read-out: In Vivo Activity (Guinea Pig) (Intraperitoneal) % Inhibition, 30 minutes); -56% in test [2] (1 h, serum 60 minutes after injection, read-out: In Vivo Activity (Guinea Pig) (Intraperitoneal) % Inhibition, 60 minutes); -76% in test [2] (2 h, serum 120 minutes after injection, read-out: In Vivo Activity (Guinea Pig) (Intraperitoneal) % Inhibition, 120 minutes).
Turning to `Cc1cc2nc3c([C@H](O[C@H]4O[C@H](COS(=O)(=O)O)[C@@H](O[C@H]5O[C@H](COS(=O)(=O)O)[C@@H](OS(=O)(=O)O)[C@H](OS(=O)(=O)O)[C@H]5OS(=O)(=O)O)[C@H](OS(=O)(=O)O)[C@H]4OS(=O)(=O)O)[C@@H](COS(=O)(=O)O)OS(=O)(=O)O)nn(-c4ccccc4)c3nc2cc1C` [D-Erythro-2,3-dihydroxy-1-(6,7-dimethyl-1-phenyl-1H-pyrazolo[3,4-b]quinoxalin-3-yl)propyl-4-O-α-D-glucopyranosyl-α-D-glucopyranoside, nonakis(H-sulfate), nonasalt with trimethylamine], the “026 In Vitro Activity (activity in wells)” value at activated human C1 is given as “+5 wells”. The “035 In Vitro Activity (activity in wells)” value in test [1] is “+1 wells”.
